Test results published in ChEMBL document CHEMBL4052711, “Synthesis of 4- and 5-arylthiazolinethiones as inhibitors of indoleamine 2,3-dioxygenase” (Bioorg Med Chem Lett, 2017).

molecular target: T1, Indoleamine 2,3-dioxygenase 1 (Homo sapiens, UniProt P14902); assay: Inhibition of human IDO1 at 10 uM pre-incubated for 10 mins before L-Trp as substrate addition and measured after 30 mins by colorimetry; conditions: not given
Target sequence in this assay (P14902 whole entry, looked up): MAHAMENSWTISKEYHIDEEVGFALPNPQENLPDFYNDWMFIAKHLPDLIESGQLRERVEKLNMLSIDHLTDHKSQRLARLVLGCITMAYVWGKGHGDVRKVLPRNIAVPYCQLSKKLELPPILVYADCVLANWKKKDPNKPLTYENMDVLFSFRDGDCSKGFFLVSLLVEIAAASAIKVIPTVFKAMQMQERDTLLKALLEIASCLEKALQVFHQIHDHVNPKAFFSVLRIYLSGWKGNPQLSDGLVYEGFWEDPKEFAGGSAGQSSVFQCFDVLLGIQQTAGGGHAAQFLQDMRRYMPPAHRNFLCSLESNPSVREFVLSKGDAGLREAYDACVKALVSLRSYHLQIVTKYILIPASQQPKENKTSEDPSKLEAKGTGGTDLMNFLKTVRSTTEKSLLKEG

| Structure (SMILES) | inhibition |
| --- | --- |
| Sc1nc(-c2ccccc2)cs1 | 35% |
| S=c1[nH]c(-c2ccc(Br)cc2)cs1 | 88% |
| Sc1nc(-c2ccc(Cl)cc2)cs1 | 79% |
| Cc1ccc(-c2csc(S)n2)cc1 | 39% |

molecular target: T1, Indoleamine 2,3-dioxygenase 1; assay: Inhibition of human IDO1 pre-incubated for 10 mins before L-Trp as substrate addition and measured after 30 mins by colorimetry; conditions: read-out: IC50
Target sequence in this assay (P14902 whole entry): as the sequence (P14902 whole entry, looked up) above

| Structure (SMILES) | IC50 |
| --- | --- |
| S=c1[nH]c(-c2ccc(Br)cc2)cs1 | 3.4 µM |
| Sc1nc(-c2ccc(Cl)cc2)cs1 | 2.6 µM |
| Cc1ccc(-c2csc(S)n2)cc1 | 5.9 µM |

same assay, conditions: read-out: pIC50 (converted)

| Structure (SMILES) | IC50 |
| --- | --- |
| Sc1nc(-c2ccc(Cl)cc2)cs1 | 2.86 µM |

molecular target: T1, Indoleamine 2,3-dioxygenase 1; assay: Inhibition of human IDO1 at 100 uM pre-incubated for 10 mins before L-Trp as substrate addition and measured after 30 mins by colorimetry; conditions: not given
Target sequence in this assay (P14902 whole entry, looked up): as above

| Structure (SMILES) | inhibition |
| --- | --- |
| O=C(O)c1ccccc1-c1csc(=S)[nH]1 | 8% |
| Nc1nc(-c2ccccc2)cs1 | 13% |
| Sc1nc(-c2ccccc2)cs1 | 76% |
| S=c1[nH]c(-c2cccc(Br)c2)cs1 | 81% |
| S=c1[nH]cc(-c2ccccc2)s1 | 16% |
| Clc1nc(-c2ccccc2)cs1 | 0.5% |
| OCc1cccc(-c2csc(=S)[nH]2)c1 | 16% |
| Cc1ccc(-c2c[nH]c(=S)s2)cc1 | 15% |
| S=c1[nH]c(-c2cccnc2)cs1 | 48% |
| S=c1[nH]c(-c2ccc(Br)cc2)cs1 | 100% |
| Sc1nc(-c2ccc(Cl)cc2)cs1 | 95% |
| N#Cc1ccc(-c2csc(=S)[nH]2)cc1 | 8% |
| Fc1ccccc1-c1csc(=S)[nH]1 | 77% |
| COc1ccc(-c2c[nH]c(=S)s2)cc1 | 0% |
| S=c1[nH]cc(-c2cccc(Br)c2)s1 | 48% |
| COc1ccc(-c2csc(=S)[nH]2)cc1 | 68% |
| S=c1[nH]c(-c2cccc(Cl)c2)cs1 | 40% |
| FC(F)(F)c1ccc(-c2csc(=S)[nH]2)cc1 | 37% |
| S=c1[nH]c(-c2ccncc2)cs1 | 21% |
| Fc1ccc(-c2csc(S)n2)cc1 | 72% |
| Fc1ccccc1-c1c[nH]c(=S)s1 | 29% |
| Fc1cccc(-c2csc(=S)[nH]2)c1 | 28% |
| Brc1nc(-c2ccccc2)cs1 | 12% |
| COc1ccccc1-c1csc(=S)[nH]1 | 53% |
| Oc1nc(-c2ccccc2)cs1 | 15% |
| Cc1ccc(-c2csc(S)n2)cc1 | 90% |
| COc1ccccc1-c1c[nH]c(=S)s1 | 12% |
